Source: PMC11767586, “Cuphea hookeriana: Phytochemical Profile and the Cosmeceutical and Dermatological Properties of Its Active Fraction from the Whole Plant” (Molecules, 2025)
In brackets after ≈: the same amount, converted by molar mass.

Molecular target: T1, mushroom tyrosinase
T1 construct: gene PPO1
Test: L-dopa oxidation, absorbance at […] nm
Format: biochemical
Conditions: L-dopa 2 mM stock, phosphate pH 6.8, 37 °C, 30 min; positive control

IC50: 270 µg/mL (≈ 992 µM)
SMILES: OC[C@H]1O[C@H](Oc2ccc(O)cc2)[C@H](O)[C@@H](O)[C@@H]1O [α-arbutin]
